Where a name gives a salt, the structure may show the parent alone.
target: T1, hNaV1.7 (Homo sapiens, UniProt Q15858); test: Patch voltage clamp electrophysiology (EP), Syncropatch 384PE, Nav1.7 in CHO cells; format: cell-based; settings: holding potential −50 mV, inhibition based on 7.5 min compound incubation, read-out: hNaV1.7 EP_SP;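 also: Nav1.7 stably expressed from cDNA in CHO cells, holding potential of −50 mV kept for the entire experiment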
T1 construct: expressed in transfected cells
T1 sequence (Q15858 1-1977 isoform Q15858-3): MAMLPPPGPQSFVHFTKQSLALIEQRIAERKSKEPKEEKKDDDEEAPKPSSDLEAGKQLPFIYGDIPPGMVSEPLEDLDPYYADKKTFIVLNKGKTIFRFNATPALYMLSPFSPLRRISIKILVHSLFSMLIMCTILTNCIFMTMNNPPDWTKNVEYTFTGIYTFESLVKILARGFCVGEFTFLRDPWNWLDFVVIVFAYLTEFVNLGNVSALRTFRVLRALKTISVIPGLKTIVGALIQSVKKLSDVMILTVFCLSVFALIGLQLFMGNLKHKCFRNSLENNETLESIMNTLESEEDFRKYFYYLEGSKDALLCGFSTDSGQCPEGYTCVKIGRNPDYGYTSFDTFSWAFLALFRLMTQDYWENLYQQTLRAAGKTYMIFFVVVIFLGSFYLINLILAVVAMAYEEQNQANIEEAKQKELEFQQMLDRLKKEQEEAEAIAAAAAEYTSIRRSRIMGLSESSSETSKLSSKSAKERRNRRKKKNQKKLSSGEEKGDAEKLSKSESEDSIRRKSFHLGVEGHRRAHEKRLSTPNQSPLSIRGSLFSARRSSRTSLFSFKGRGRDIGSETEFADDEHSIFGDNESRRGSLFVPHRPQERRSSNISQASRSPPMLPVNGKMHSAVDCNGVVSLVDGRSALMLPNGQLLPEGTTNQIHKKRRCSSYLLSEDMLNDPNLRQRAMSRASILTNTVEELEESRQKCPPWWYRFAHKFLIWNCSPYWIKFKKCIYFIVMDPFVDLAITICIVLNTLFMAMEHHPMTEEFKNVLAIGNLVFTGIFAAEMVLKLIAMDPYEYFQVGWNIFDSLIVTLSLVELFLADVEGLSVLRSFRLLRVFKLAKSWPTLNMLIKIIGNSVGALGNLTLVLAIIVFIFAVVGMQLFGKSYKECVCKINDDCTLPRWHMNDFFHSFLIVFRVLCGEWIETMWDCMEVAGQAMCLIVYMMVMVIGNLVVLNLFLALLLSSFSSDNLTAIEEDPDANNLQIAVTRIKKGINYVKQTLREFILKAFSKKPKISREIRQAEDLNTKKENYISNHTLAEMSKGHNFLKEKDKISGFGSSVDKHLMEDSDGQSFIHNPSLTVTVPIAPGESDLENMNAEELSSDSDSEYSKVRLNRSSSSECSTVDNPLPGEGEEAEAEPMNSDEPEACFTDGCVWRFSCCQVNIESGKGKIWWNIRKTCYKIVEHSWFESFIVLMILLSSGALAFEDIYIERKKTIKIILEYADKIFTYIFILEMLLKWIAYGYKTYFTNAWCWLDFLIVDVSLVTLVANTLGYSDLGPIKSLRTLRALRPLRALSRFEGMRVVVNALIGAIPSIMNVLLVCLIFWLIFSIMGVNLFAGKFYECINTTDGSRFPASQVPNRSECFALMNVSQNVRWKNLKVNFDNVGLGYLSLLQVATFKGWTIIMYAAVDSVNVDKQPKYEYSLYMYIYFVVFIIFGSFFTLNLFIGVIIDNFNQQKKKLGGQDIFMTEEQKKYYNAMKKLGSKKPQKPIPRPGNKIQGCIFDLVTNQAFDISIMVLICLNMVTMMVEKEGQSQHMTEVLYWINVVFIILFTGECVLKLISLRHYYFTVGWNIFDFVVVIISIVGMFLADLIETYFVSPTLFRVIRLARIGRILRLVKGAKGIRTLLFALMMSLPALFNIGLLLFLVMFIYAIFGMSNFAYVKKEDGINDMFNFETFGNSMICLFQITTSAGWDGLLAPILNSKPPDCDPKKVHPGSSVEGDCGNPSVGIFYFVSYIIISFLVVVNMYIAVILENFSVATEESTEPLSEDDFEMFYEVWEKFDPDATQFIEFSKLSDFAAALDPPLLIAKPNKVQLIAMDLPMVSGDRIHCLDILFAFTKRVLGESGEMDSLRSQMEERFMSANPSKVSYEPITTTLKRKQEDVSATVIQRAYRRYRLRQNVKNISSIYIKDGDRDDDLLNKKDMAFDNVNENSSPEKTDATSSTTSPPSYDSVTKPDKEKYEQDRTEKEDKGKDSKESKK

Row | Structure (SMILES) | IC50
1 | COc1ccc(F)cc1-c1nccc2cc(S(=O)(=O)NC(=O)c3cc(Cl)c(OCC4CCCC4)cc3F)ccc12 [Example 72, 5-chloro-4-(cyclopentylmethoxy)-2-fluoro-N-((1-(5-fluoro-2-methoxy-phenyl)isoquinolin-6-yl)sulfonyl)benzamide] | 340 nM
2 | COc1ccccc1-n1cc(S(=O)(=O)NC(=O)c2cc(Cl)c(OCC3CCCC3)cc2F)cn1 [Example 291, 5-chloro-4-(cyclopentylmethoxy)-2-fluoro-N-((1-(2-methoxyphenyl)-1H-pyrazol-4-yl)sulfonyl)benzamide] | 350 nM
3 | O=C(NS(=O)(=O)c1ccc(NCc2ccccc2)cc1)c1cc(Cl)c(OCC2CCCC2)cc1F [Example 84, N-((4-(benzylamino)phenyl)sulfonyl)-5-chloro-4-(cyclopentylmethoxy)-2-fluorobenzamide] | 690 nM
4 | O=C(NS(=O)(=O)c1ccc2c(c1)NCCC2)c1cc(Cl)c(OCC2CCCC2)cc1F [Example 267, 5-chloro-4-(cyclopentylmethoxy)-2-fluoro-N-((1,2,3,4-tetrahydroquinolin-7-yl)sulfonyl)benzamide] | 800 nM
5 | O=C(N[C@@H](C(=O)O)C1CCCCC1)c1cc(Cl)c(OCC2CCCC2)cc1F [Example 107, (R)-2-(5-chloro-4-(cyclopentylmethoxy)-2-fluorobenzamido)-2-cyclohexyl-acetic acid] | 990 nM
6 | O=C(NS(=O)(=O)c1ccc2c(c1)CCCO2)c1cc(Cl)c(OCC2CCCC2)cc1F [Example 265, 5-chloro-N-(chroman-6-ylsulfonyl)-4-(cyclopentylmethoxy)-2-fluorobenzamide] | 330 nM
7 | NC1CN(S(=O)(=O)NC(=O)c2cc(Cl)c(OCC3CCCC3)cc2F)C1 [Example 233, N-((3-aminoazetidin-1-yl)sulfonyl)-5-chloro-4-(cyclopentylmethoxy)-2-fluorobenzamide] | 870 nM
8 | O=S(=O)(Nc1noc2cc(OCC3CCCC3)c(C3CC3)cc12)N1CCC(O[C@@H]2CCNC2)CC1 (single isomer, unassigned) [Example 91, 2,2,2-trifluoroacetate] | 790 nM
9 | CN(C)[C@H]1CCCC[C@@H]1Oc1ccc(S(=O)(=O)Nc2noc3cc(OCC4CCCC4)c(C4CC4)cc23)c(F)c1 [Example 89, N-(6-(cyclopentylmethoxy)-5-cyclopropylbenzo[d]isoxazol-3-yl)-4-(((1S,2S)-2-(dimethylamino)cyclohexyl)oxy)-2-fluorobenzenesulfonamide] | 340 nM
10 | O=C(NS(=O)(=O)c1cc(Cl)ccc1F)c1cc(Cl)c(OCC2CCCC2)cc1F [Example 80, 5-chloro-N-((5-chloro-2-fluorophenyl)sulfonyl)-4-(cyclopentylmethoxy)-2-fluorobenzamide] | 700 nM
11 | CCc1ccc(S(=O)(=O)NC(=O)c2cc(Cl)c(OCC3CCCC3)cc2F)cc1 [Example 243, 5-chloro-4-(cyclopentylmethoxy)-N-((4-ethylphenyl)sulfonyl)-2-fluorobenzamide] | 670 nM
12 | CN(C)[C@H]1CCCC[C@@H]1Nc1cc(F)c(S(=O)(=O)Nc2ccc(OCCC3(C(F)(F)F)CC3)cn2)cc1Cl [Example 101, 5-chloro-4-(((1S,2S)-2-(dimethylamino)cyclohexyl)amino)-2-fluoro-N-(5-(2-(1-(trifluoromethyl)cyclopropyl)ethoxy)pyridin-2-yl)benzenesulfonamide] | 480 nM
13 | COc1cccc(S(=O)(=O)NC(=O)c2cc(Cl)c(OCC3CCCC3)cc2F)c1 [Example 245, 5-chloro-4-(cyclopentylmethoxy)-2-fluoro-N-((3-methoxyphenyl)sulfonyl)benzamide] | 690 nM
14 | O=C(NS(=O)(=O)c1ccc(Cn2cncn2)cc1)c1cc(Cl)c(OCC2CCCC2)cc1F [Example 292, N-((4-((1H-1,2,4-triazol-1-yl)methyl)phenyl)sulfonyl)-5-chloro-4-(cyclopentylmethoxy)-2-fluorobenzamide] | 430 nM
15 | C[C@H]1CCc2ccccc2N1S(=O)(=O)NC(=O)c1cc(Cl)c(OCC2CCCC2)cc1F [(S) enantiomer of Example 18] | 500 nM
16 | O=C(NS(=O)(=O)N1CC(O[C@@H]2CCCNC2)C1)c1cc(Cl)c(OCC2CCCC2)cc1F (single isomer, unassigned) [Example 48] | 860 nM
17 | O=C(NS(=O)(=O)C1=Cc2ccccc2CC1)c1cc(Cl)c(OCC2CCCC2)cc1F [Example 275, 5-chloro-4-(cyclopentylmethoxy)-N-((3,4-dihydronaphthalen-2-yl)sulfonyl)-2-fluorobenzamide] | 510 nM
18 | O=C(NS(=O)(=O)c1ccc2c(c1)OCCCO2)c1cc(Cl)c(OCC2CCCC2)cc1F [Example 289, 5-chloro-4-(cyclopentylmethoxy)-N-((3,4-dihydro-2H-benzo[b][1,4]dioxepin-7-yl)sulfonyl)-2-fluorobenzamide] | 710 nM

These reach a lower IC50. Values come first.

Row | IC50 | Structure (SMILES)
19 | 17 nM | CN(C)C1CCCN(c2cc(F)c(S(=O)(=O)NC(=O)c3cc(Cl)c(OCC4CCCC4)cc3F)c(F)c2)C1 (stereo not shown) [Example 62, 5-chloro-4-(cyclopentylmethoxy)-N-((4-(3-(dimethylamino)piperidin-1-yl)-2,6-difluorophenyl)sulfonyl)-2-fluorobenzamide formate]
20 | 15 nM | NC[C@@H]1CN(S(=O)(=O)NC(=O)c2cc(C3CC3)c(OCC3CCCC3)cc2F)CCO1 (single isomer, unassigned) [Example 25, 2,2,2-trifluoroacetate]
21 | 190 nM | COc1ccccc1COc1ccc(S(=O)(=O)NC(=O)c2cc(Cl)c(OCC3CCCC3)cc2F)cc1 [Example 318, 5-chloro-4-(cyclopentylmethoxy)-2-fluoro-N-((4-((2-methoxybenzyl)oxy)phenyl)sulfonyl)benzamide]
22 | 320 nM | O=C(NS(=O)(=O)c1c(F)cc(N2CCCCC2)cc1F)c1cc(Cl)c(OCC2CCCC2)cc1F [Example 58, 5-chloro-4-(cyclopentylmethoxy)-N-((2,6-difluoro-4-(piperidin-1-yl)phenyl)-sulfonyl)-2-fluorobenzamide]
23 | 39 nM | O=C(NS(=O)(=O)c1ccc(OCc2ccccn2)cc1)c1cc(Cl)c(OCC2CCCC2)cc1F [Example 301, 5-chloro-4-(cyclopentylmethoxy)-2-fluoro-N-((4-(pyridin-2-ylmethoxy)phenyl)sulfonyl)benzamide]
24 | 210 nM | O=C(NS(=O)(=O)N1CCC2CCNCC2C1)c1cc(Cl)c(OCC2CCCC2)cc1F (stereo not shown) [Example 321, 5-chloro-4-(cyclopentylmethoxy)-2-fluoro-N-((octahydro-2,7-naphthyridin-2(1H)-yl)sulfonyl)benzamide]
25 | 100 nM | C[C@@H]1Cc2ccccc2N(S(=O)(=O)NC(=O)c2cc(Cl)c(OCC3CCCC3)cc2F)C1 (single isomer, unassigned) [Example 17]
26 | 210 nM | O=C(NS(=O)(=O)N1CC2(CCO2)C1)c1cc(Cl)c(OCC2CCCC2)cc1F [Example 228, N-((1-oxa-6-azaspiro[3.3]heptan-6-yl)sulfonyl)-5-chloro-4-(cyclopentylmethoxy)-2-fluorobenzamide]
27 | 130 nM | O=C(NS(=O)(=O)c1ccc(OCc2ccccc2)cc1)c1cc(Cl)c(OCC2CCCC2)cc1F [Example 294, N-((4-(benzyloxy)phenyl)sulfonyl)-5-chloro-4-(cyclopentylmethoxy)-2-fluorobenzamide]
28 | 200 nM | O=C(NS(=O)(=O)N1CCC(O[C@@H]2CCNC2)CC1)c1cc(Cl)c(OCC2CCCC2)cc1F (single isomer, unassigned) [Example 36, 2,2,2-trifluoroacetate]
29 | 160 nM | Cn1ncnc1COc1ccc(S(=O)(=O)NC(=O)c2cc(Cl)c(OCC3CCCC3)cc2F)cc1 [Example 286, 5-chloro-4-(cyclopentylmethoxy)-2-fluoro-N-((4-((1-methyl-1H-1,2,4-triazol-5-yl)methoxy)phenyl)sulfonyl)benzamide]
30 | 88 nM | O=C(NS(=O)(=O)Cc1cccc(F)c1F)c1cc(Cl)c(OCC2CCCC2)cc1F [Example 268, 5-chloro-4-(cyclopentylmethoxy)-N-((2,3-difluorobenzyl)sulfonyl)-2-fluorobenzamide]
31 | 220 nM | CN(C)[C@H]1CCCC[C@@H]1Oc1ccc(S(=O)(=O)NC(=O)c2cc(Cl)c(OCC3CCCC3)cc2F)c(F)c1 [Example 66, 5-chloro-4-(cyclopentylmethoxy)-N-((4-(((1S,2S)-2-(dimethylamino)-cyclohexyl)oxy)-2-fluorophenyl)sulfonyl)-2-fluorobenzamide]
32 | 240 nM | O=C(NS(=O)(=O)N1CCC(OC2CN(CC(F)(F)F)C2)CC1)c1cc(Cl)c(OCC2CCCC2)cc1F [Example 13, 5-chloro-4-(cyclopentylmethoxy)-2-fluoro-N-((4-((1-(2,2,2-trifluoroethyl)azetidin-3-yl)oxy)piperidin-1-yl)sulfonyl)benzamide]
33 | 110 nM | Cc1csc(S(=O)(=O)NC(=O)c2cc(Cl)c(OCC3CCCC3)cc2F)c1 [Example 252, 5-chloro-4-(cyclopentylmethoxy)-2-fluoro-N-((4-methylthiophen-2-yl)sulfonyl)benzamide]
34 | 39 nM | CN1CC[C@H](OC2CCN(S(=O)(=O)NC(=O)c3cc(Cl)c(OCC4CCCC4)cc3F)CC2)C1 (single isomer, unassigned) [Example 38]
35 | 170 nM | CN(C)[C@H]1CCCC[C@@H]1Nc1ccc(S(=O)(=O)Nc2nc3ncc(Br)cc3s2)c(F)c1 [Example 95, N-(6-bromothiazolo[4,5-b]pyridin-2-yl)-4-(((1S,2S)-2-(dimethylamino)-cyclohexyl)amino)-2-fluorobenzenesulfonamide]
36 | 47 nM | Cn1nccc1COc1ccc(S(=O)(=O)NC(=O)c2cc(Cl)c(OCC3CCCC3)cc2F)cc1 [Example 315, 5-chloro-4-(cyclopentylmethoxy)-2-fluoro-N-((4-((1-methyl-1H-pyrazol-5-yl)methoxy)phenyl)sulfonyl)benzamide]
37 | 5.5 nM | COc1cc(F)c(C(=O)NS(=O)(=O)c2ccc(O[C@H]3CC[C@H](c4cccc(C(F)(F)F)c4)C[C@@H]3N(C)C)cc2F)cc1C1CC1 [Example 74, 5-cyclopropyl-N-((4-(((1S,2S,4S)-2-(dimethylamino)-4-(3-(trifluoro-methyl)phenyl)cyclohexyl)oxy)-2-fluorophenyl)sulfonyl)-2-fluoro-4-methoxybenzamide]

From patent US20240228463A1, “SODIUM CHANNEL INHIBITORS AND METHODS OF DESIGNING SAME” (Genentech, Inc., priority 2021, published 2024)
